We go through one compound from patent publication US8314150B2, “Kinase protein binding inhibitors” (priority 2008, dated 2012).

SMILES strings stand for the structures.

The experiment relates to Panc-1 cells. As to the kind of experiment: Detachment assay, Panc-1. It counts as cell-based, human. Particulars: for detachment: 48 hours. As to the method:
Cell Viability Assay—The Cells were treated with peptides for 24 hours at different peptide concentrations. The 3-(4,5-dimethylthiazol-2-yl)-5-(3-carboxymethoxyphenyl)-2-(4-sulfophenyl)-2H-tetrazolium compound from Promega Viability kit (Madison, Ill.) was added, and the cells were incubated at 37° C. for 1-2 hours. The optical density on 96-plate was analyzed with a microplate reader at 490 nm to determine cell viability. In addition, cells were stained with trypan blue after 24 hours of treatment with Y15 and the percent of cells that stained positive were determined with a hemacytometer. Cell adhesion assay—The poly-L-Lysine or Collagen (5 μg/ml) coated 96-well plates were blocked with the blocking buffer (medium with 0.5% BSA) for 1 hour at 37 C. The cells were pre-treated with drugs for 3 hours and plated for adhesion at 4×10^5 cells. Cells were incubated at 37 C for 1 hour, fixed in 3.7% formaldehyde, washed in 0.1% BSA in PBS and stained with crystal violet (5 mg/ml in 2% ethanol) for 10 minutes. Then 2% SDS was added to the dried plated and OD at 590 nm was measured for detecting cell adhesion. […] Protein concentrations were determined using a Bio-Rad Kit. The boiled samples were loaded on Ready SDS-10% PAGE gels (Bio Rad, Inc) and used for Western blot analysis with the protein-specific antibody. […] We calculated the percent of detachment by dividing the number of detached cells by the total number of cells. The percent of detached cells was calculated in three independent experiments. […] The percent of apoptotic cells was calculated as a ratio of apoptotic detached cells divided by the total number of cells in three independent experiments in several fields with the fluorescent microscope. For each experiment 300 cells per treatment were counted. […]

Regarding `Cl.Cl.Cl.Cl.Nc1cc(N)c(N)cc1N` [Y15, 1,2,4,5-benzenetetraamine tetrahydrochloride], the “detachment compared with TAE226” value is given as “more detachment than TAE226”. The detachment (10 μM) was determined as 13%. Under “50 μM”, this compound yielded a detachment of 32%.
